According to US20090311295A1, “PARTICLES WITH HIGH UNIFORM LOADING OF NANOPARTICLES AND METHODS OF PREPARATION THEREOF” (priority 2006, published 2009):

Key:
[1] = Solubility of raw materials and polymer melt mixtures; details: for MeCl2 Solubility: methylene chloride, Table III; for solubility in organics: organic solvents
[2] = X-ray diffraction (XRD) crystallinity; assay type: physicochemical; details: crystalline area divided by total scan area
Protocol: X-ray diffraction (XRD) was carried out on the raw materials of PS, PMMA and brilliant blue G. Crystallinity of these materials was calculated by dividing the crystalline area (obtained by subtracting amorphous region) by the total scan area. […] XRD was then run on the melt mixtures of brilliant blue G with PS and PMMA.

Compound | MeCl2 Solubility [1] | solubility in organics [1] | water solubility [1] | XRD % Crystallinity [2] [%]
O=C1/C(=C2\Nc3ccc(S(=O)(=O)[O-])cc3C2=O)Nc2ccc(S(=O)(=O)[O-])cc21.[Na+].[Na+] [FD&C blue #2] | − | insoluble in most organics | very water soluble | 36.4
CCN(Cc1cccc(S(=O)(=O)[O-])c1)c1ccc(C(=C2C=CC(=[N+](CC)Cc3cccc(S(=O)(=O)[O-])c3)C=C2)c2ccccc2S(=O)(=O)[O-])cc1.[Na+].[Na+] [FD&C blue #1] | − | insoluble in most organics | very water soluble | 
CCOc1ccc(Nc2ccc(/C(=C3C=C/C(=[N+](/CC)Cc4cccc(S(=O)(=O)[O-])c4)C=C/3C)c3ccc(N(CC)Cc4cccc(S(=O)(=O)[O-])c4)cc3C)cc2)cc1.[Na+] [Brillian blue G, Brilliant blue G] |  |  |  | 22.3
[Cu+2].c1ccc2c(c1)-c1nc-2nc2[n-]c(nc3nc(nc4[n-]c(n1)c1ccccc41)-c1ccccc1-3)c1ccccc21 [Copper(II) phthalocyanine] | − | insoluble in most organics | water insoluble | 67.1
CC1=C(/C=C/C(C)=C/C=C/C(C)=C/C=C/C=C(C)/C=C/C=C(C)/C=C/C2=C(C)CCCC2(C)C)C(C)(C)CCC1 [beta-Carotene, β-carotene] | + | slightly soluble in some organics | nearly water insoluble | 
CC1(C)C(/C=C/C=C/C=C/C=C2\N(CCCCS(=O)(=O)O)c3ccc4ccccc4c3C2(C)C)=[N+](CCCCS(=O)(=O)[O-])c2ccc3ccccc3c21 [Indocyanine green] | − | insoluble in most organics | very water soluble | 24.8
Chlorophyll | − | insoluble in most organics | water soluble | 19.1
